{"source": "patent US11026441B2", "about": "“Avocado flesh and/or skin extract rich in polyphenols and cosmetic, dermatological and nutraceutical compositions comprising same” (Laboratoires Expanscience, priority 2010, dated 2021)", "format_in_all_cases": "cell-based", "key": {"[1]": {"test_system": "histamine release by mastocytes", "assay": "Release of histamine by mastocytes stimulated with substance P (ELISA)", "conditions": "10 nM calcium; 10 μM substance P", "experimental": "The mastocytes were then stimulated with 10 μM substance P for 15 minutes. At the end of incubation, the release of histamine was quantified by ELISA.\n(§1) The results were analyzed statistically by a Student's t-test."}, "[2]": {"test_system": "Normal human epidermal melanocytes", "assay": "Melanin production by melanocytes stimulated by NDP-MSH", "conditions": "0.25 mM kojic acid; 10^−7 M NDP-MSH; 240 hours", "experimental": "After 240 hours of incubation, melanin was extracted from the cells and quantified by spectrophotometry. The results were analyzed statistically by a Student's t-test."}, "[3]": {"test_system": "PGE2 production by human keratinocytes (NCTC-2544 cell line)", "assay": "Production of PGE2 by PMA-stimulated keratinocytes (ELISA)", "conditions": "10^−6 M indomethacin, 0.1 μg/ml PMA"}, "[4]": {"test_system": "IL8 production by human keratinocytes (NCTC-2544 cell line)", "assay": "Production of IL8 by PMA-stimulated keratinocytes (ELISA)", "conditions": "10^−7 M dexamethasone, 0.1 μg/ml PMA", "experimental": "The cells were then treated with 0.1 μg/ml phorbol myristate acetate (PMA) for 24 hours, always in the presence of AV or the references.\nAt the end of the treatment, the quantities of interleukin 8 (IL8) and prostaglandin E2 (PGE2) secreted were measured by ELISA in the culture supernatants.\nas §1"}, "[5]": {"test_system": "laminin-5 (subunit γ2) gene expression in normal human keratinocytes", "assay": "Gene expression of laminin-5 (subunit γ2) in keratinocytes, real-time RT-PCR", "conditions": "5 ng/ml TGFβ1; 48 hours", "experimental": "(§2) Normal human keratinocytes were incubated for 48 hours in the presence of the avocado extract concentrated in polyphenols (AV) at concentrations of 0.001% and 0.005% (w/v of active material) or 5 ng/ml TGFβ1 (reference).\n(§3) The gene expression of MMP9 and laminin-5 (subunit γ2) was studied by real-time RT-PCR.\n(§4) The results were analyzed statistically by a one-factor ANOVA followed by a Dunnett's test: ns (not significant) p>0.05; *p<0.05; ***p<0.001."}, "[6]": {"test_system": "MMP9 gene expression in normal human keratinocytes", "assay": "Gene expression of MMP9 in keratinocytes, real-time RT-PCR", "conditions": "5 ng/ml TGFβ1; 48 hours", "experimental": "as §2, §3, §4"}}, "data": [{"compound": "[Ca+2]", "note": "[Calcium, calcium]", "values": [{"measurement": "Histamine", "setting": "[1]", "result": "21.8 ± 1.0", "unit": "ng/mL"}, {"measurement": "Inhibition of histamine release", "setting": "[1]", "result": "−85", "unit": "% p < 0.01"}]}, {"compound": "O=c1cc(CO)occ1O", "note": "[Kojic acid, kojic acid]", "values": [{"measurement": "Change in melanin versus stimulated control", "setting": "[2]", "result": "−32", "unit": "% p < 0.001"}]}, {"compound": "COc1ccc2c(c1)c(CC(=O)O)c(C)n2C(=O)c1ccc(Cl)cc1", "note": "[Indomethacin, indomethacin]", "values": [{"measurement": "PGE2", "setting": "[3]", "result": "0.039 ± 0.0", "unit": "ng/mL"}, {"measurement": "inhibition at 1 µM", "setting": "[3]; Homo sapiens, NCTC-2544", "result": 100, "unit": "%"}]}, {"compound": "C[C@@H]1C[C@H]2[C@@H]3CCC4=CC(=O)C=C[C@]4(C)[C@@]3(F)[C@@H](O)C[C@]2(C)[C@@]1(O)C(=O)CO", "note": "[Dexamethasone, dexamethasone]", "values": [{"measurement": "IL8", "setting": "[4]", "result": "7.4 ± 0.8", "unit": "ng/mL"}, {"measurement": "inhibition at 0.1 µM", "setting": "[4]; Homo sapiens, NCTC-2544", "result": 85, "unit": "%"}]}, {"compound": "TGFβ1: 5 ng/ml TGFβ1 (reference) in keratinocyte migration marker test", "values": [{"measurement": "Laminin-5 gene expression (relative quantity)", "setting": "[5]", "result": 11.33}, {"measurement": "Laminin-5 gene expression, change versus control cells", "setting": "[5]", "result": "+1033% ***"}, {"measurement": "MMP9 gene expression (relative quantity)", "setting": "[6]", "result": 19.84}, {"measurement": "MMP9 gene expression, change versus control cells", "setting": "[6]", "result": "+1884% ***"}]}]}
